Measurements published in US10668081B2, “Prostamide-containing intraocular implant” (Allergan, Inc., priority 2013, dated 2020).

How the values were obtained:
[1] = tested on: intraocular pressure in dogs; assay: IOP reduction after intracameral administration by infusion pump in dogs; format: in vivo, dog; settings: for Intracameral Administration (dogs) Max IOP reduction: infusion pump into anterior chamber, 2-3 weeks, vs baseline
Text: (§1) A series of prostamides were selected as potential candidates for an intracameral biodegradable drug delivery system (e.g., an implant) and tested for their ability to lower IOP by direct administration to the aqueous humor (therefore, by intracameral administration). Table 1 lists the EC50 values (nM) obtained from the feline (cat) iris assay, calculated log P values (clog P), and IOP reduction values obtained after either topical or intracameral administration for different prostamides. Intracameral drug administration was accomplished by placing an infusion pump in the subcutaneous pocket in the neck of dogs with a cannula running into the anterior chamber of the eye. Test runs were carried out to measure and compare the concentration of the compound in the solution exiting the pump with that initially added to the pump in order to confirm the dosing level.

Prostamide/FP receptor = Prostamide/FP receptor (Felis catus, UniProt A0ABI7XJ69); assay: Cat iris sphincter assay (contraction of isolated feline iris sphincter muscle); format: cell-based
[2] = tested on: intraocular pressure in dogs; assay: IOP reduction after topical administration to normotensive dogs; format: in vivo, dog; settings: topical 25 μL, 6 hours after administration
Text: as §1

Sequence of Prostamide/FP receptor (A0ABI7XJ69 entry or part of it): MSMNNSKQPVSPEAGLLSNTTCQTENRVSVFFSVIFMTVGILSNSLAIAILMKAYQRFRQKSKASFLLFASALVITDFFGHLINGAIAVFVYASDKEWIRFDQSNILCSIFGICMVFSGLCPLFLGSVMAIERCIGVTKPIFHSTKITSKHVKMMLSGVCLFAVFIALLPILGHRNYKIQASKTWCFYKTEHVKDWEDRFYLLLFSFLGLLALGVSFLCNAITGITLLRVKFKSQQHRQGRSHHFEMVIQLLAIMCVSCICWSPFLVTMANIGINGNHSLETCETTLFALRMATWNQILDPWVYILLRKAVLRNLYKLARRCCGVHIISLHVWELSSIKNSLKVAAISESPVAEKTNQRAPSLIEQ

SMILES | Intracameral Administration (dogs) Max IOP reduction ([1]; dose 15 ng/day) [%] | EC50 (Prostamide/FP receptor) [nM] | Topical Administration (dogs) IOP reduction ([2]; concentration 0.03% (w/v)) [mm Hg] | IOP reduction when administered intracamerally, compared with bimatoprost (in words) ([1]; normotensive dog eye, directly to the anterior chamber) | Intracameral Administration (dogs) Max IOP reduction ([1]; dose 108 ng/day) [%] | Topical Administration (dogs) IOP reduction ([2]; concentration 0.01% (w/v)) [mm Hg] | Intracameral Administration (dogs) Max IOP reduction ([1]; dose 100 ng/day) [%]
CCNC(=O)CCC/C=C\C[C@@H]1[C@@H](/C=C/[C@@H](O)CCc2cc(Br)c(C)s2)[C@H](O)C[C@@H]1O [Compound 4] | <10 | 25 | −3 | – | – | – | –
NC(=O)CCC/C=C\C[C@@H]1[C@@H](/C=C/[C@@H](O)CCc2cc(Cl)sc2Cl)[C@H](O)C[C@@H]1O [Compound 1] | ~35 | – | −5 | reduces IOP effectively and much more efficiently than bimatoprost | – | – | –
CCNC(=O)CCC/C=C\C[C@@H]1[C@@H](/C=C/[C@@H](O)CCc2ccccc2)[C@H](O)C[C@@H]1O [Compound 3, Bimatoprost] | – | – | – | – | ~45 | −3.6 | –
CCCCC[C@@H](/C=C/[C@@H]1[C@@H](C/C=C\CCCC(N)=O)[C@@H](O)C[C@H]1O)OC [Compound 5] | – | – | – | – | – | −3 to −4 | ~20
